Results published in PMC4928982 (Science Advances, 2016).
Residues, ends and D or L forms follow the SMILES beside them.

What was measured:
[1] = test system: mouse placenta (maternofetal interface); assay type: in vivo, BALB/c mice; conditions: 200 μg, tail vein, cardiac perfusion
[2] = test system: human first-trimester placental explants (CTB)
[3] = test system: human placental explants (syncytiotrophoblast); assay: Peptide-binding assay with human placental explants; assay type: cell-based; conditions: peptide 20 μM, 0 to 3 hours

Compound: N=C(N)NCCC[C@H](NC(=O)[C@H](CCCCN)NC(=O)CNC(=O)[C@H](CS)NC(=O)c1ccc2c(c1)C(=O)OC21c2ccc(O)cc2Oc2cc(O)ccc21)C(=O)N[C@@H](CCCCN)C(=O)O [FAM-CGKRK] (HELM PEPTIDE1{[O=C1OC2(c3ccc(O)cc3Oc3cc(O)ccc32)c2ccc(C(=O)[*:2])cc21].C.G.K.R.K}$$$$V2.0)
- accumulation in maternal organs ([1]; pregnant mice, 3 hours, confocal microscopy (fig. S1)): do not accumulate in maternal organs of pregnant mice

Compound: Cys-Arg-Gly-Asp-Lys-Gly-Pro-Asp-Cys (disulfide) [iRGD]
- basal rates of CTB proliferation (Ki67) [2]: did not alter
- rate of CTB apoptosis (M30) [2]: modestly reduced

Compound: Cys-Gly-Lys-Arg-Lys [CGKRK]
- basal rates of CTB proliferation (Ki67) [2]: did not alter

Compound: FAM-ARALPSQRSR [reference compound]
- binding to human placenta (first-trimester and term explants) [3]: did not bind to the syncytium of human placenta or to other cellular components
- binding at the murine maternofetal interface ([1]; pregnant mice E11.5 to E17.5, 3 hours, fluorescence microscopy, n = 3 placentas from n = 4 mice): did not target the maternofetal interface
